Here are results for 9 compounds from patent US20180000085A1, “USE OF PICOLINAMIDE COMPOUNDS WITH FUNGICIDAL ACTIVITY” (DOW AGROSCIENCES LLC, priority 2014, published 2018).

One assay concerns Zymoseptoria tritici. The experiment in a line: Leaf blotch of wheat (SEPTTR) disease control on wheat seedlings. It is filed as in vivo. Details: key to SEPTTR 1DP, HV activity at 100 ppm (% control rating) / SEPTTR 3DC, HV activity at 100 ppm (% control rating) / SEPTTR disease control, 1DP / SEPTTR disease control, 3DC / SEPTTR 1DP disease control rating, HV activity / SEPTTR 3DC disease control rating, HV activity / SEPTTR 3DC, LV activity at 125.1 g/H (% Control rating) / SEPTTR 1DP, LV activity at 125.1 g/H (% Control rating) / SEPTTR 1DP disease control rating, LV activity at 125.1 g/H / SEPTTR 3DC disease control rating, LV activity at 125.1 g/H / SEPTTR 3DC disease control rating, HV activity at 100 ppm / SEPTTR 1DP disease control rating, HV activity at 100 ppm / HV activity at 100 ppm SEPTTR 3DC (disease control rating) / HV activity at 100 ppm SEPTTR 1DP (disease control rating) / LV activity at 125.1 g/H SEPTTR 1DP (disease control rating) / LV activity at 125.1 g/H SEPTTR 3DC (disease control rating): A: > 80; B: ≤ 80; C: Not Tested; D: No Activity Observed in the Reported Assay. Particulars: for SEPTTR 1DP, LV activity at 125.1 g/H (% Control rating) / SEPTTR 3DC, LV activity at 125.1 g/H (% Control rating) / SEPTTR 1DP disease control rating, LV activity at 125.1 g/H / SEPTTR 3DC disease control rating, LV activity at 125.1 g/H / LV activity at 125.1 g/H SEPTTR 1DP (disease control rating) / LV activity at 125.1 g/H SEPTTR 3DC (disease control rating): low volume application; for SEPTTR 1DP, LV activity at 125.1 g/H (% Control rating) / SEPTTR 1DP disease control rating, HV activity / LV activity at 125.1 g/H SEPTTR 1DP (disease control rating): 1 Day Protectant; for SEPTTR 3DC, LV activity at 125.1 g/H (% Control rating) / SEPTTR 3DC disease control rating, HV activity / LV activity at 125.1 g/H SEPTTR 3DC (disease control rating): 3 Day Curative; for SEPTTR 1DP disease control rating, HV activity / SEPTTR 3DC disease control rating, HV activity: HV application at 100 ppm; for SEPTTR 1DP disease control rating, HV activity / SEPTTR 3DC disease control rating, HV activity / LV activity at 125.1 g/H SEPTTR 1DP (disease control rating) / LV activity at 125.1 g/H SEPTTR 3DC (disease control rating): wheat leaf blotch; for SEPTTR 1DP disease control rating, LV activity at 125.1 g/H: 1 day protectant; for SEPTTR 3DC disease control rating, LV activity at 125.1 g/H: 3 day curative.

The subject of another assay is Puccinia triticina. Put plainly: Wheat brown rust (PUCCRT) disease control on wheat seedlings. Set-up: key to PUCCRT 3DC, HV activity at 100 ppm (% control rating) / PUCCRT disease control, 3DC / PUCCRT 1DP disease control rating, HV activity / PUCCRT 3DC disease control rating, HV activity / PUCCRT 3DC, LV activity at 125.1 g/H (% Control rating) / PUCCRT 1DP, LV activity at 125.1 g/H (% Control rating) / PUCCRT 3DC disease control rating, LV activity at 125.1 g/H / PUCCRT 1DP disease control rating, LV activity at 125.1 g/H / PUCCRT 3DC disease control rating, HV activity at 100 ppm / PUCCRT 1DP disease control rating, HV activity at 100 ppm / HV activity at 100 ppm PUCCRT 3DC (disease control rating) / LV activity at 125.1 g/H PUCCRT 1DP (disease control rating) / LV activity at 125.1 g/H PUCCRT 3DC (disease control rating): A: > 80; B: ≤ 80; C: Not Tested; D: No Activity Observed in the Reported Assay. It is filed as in vivo. Particulars: for PUCCRT 1DP, LV activity at 125.1 g/H (% Control rating) / PUCCRT 3DC, LV activity at 125.1 g/H (% Control rating) / PUCCRT 1DP disease control rating, LV activity at 125.1 g/H / PUCCRT 3DC disease control rating, LV activity at 125.1 g/H / LV activity at 125.1 g/H PUCCRT 1DP (disease control rating) / LV activity at 125.1 g/H PUCCRT 3DC (disease control rating): low volume application; for PUCCRT 1DP, LV activity at 125.1 g/H (% Control rating) / PUCCRT 1DP disease control rating, HV activity / LV activity at 125.1 g/H PUCCRT 1DP (disease control rating): 1 Day Protectant; for PUCCRT 3DC, LV activity at 125.1 g/H (% Control rating) / PUCCRT 3DC disease control rating, HV activity / LV activity at 125.1 g/H PUCCRT 3DC (disease control rating): 3 Day Curative; for PUCCRT 1DP disease control rating, HV activity / PUCCRT 3DC disease control rating, HV activity: HV application at 100 ppm; for PUCCRT 1DP disease control rating, HV activity / PUCCRT 3DC disease control rating, HV activity / LV activity at 125.1 g/H PUCCRT 1DP (disease control rating) / LV activity at 125.1 g/H PUCCRT 3DC (disease control rating): wheat brown rust; for PUCCRT 1DP disease control rating, LV activity at 125.1 g/H: 1 day protectant; for PUCCRT 3DC disease control rating, LV activity at 125.1 g/H: 3 day curative.

As to `CCC(CC)[C@@H](OCC1CC1)[C@H](C)OC(=O)[C@H](C)NC(=O)c1nccc(OC)c1OC(C)=O` [Cmpd 555], in the assay with Zymoseptoria tritici, the “SEPTTR 1DP, LV activity at 125.1 g/H (% Control rating)” value (“SEPTTR 1DP … (% Control rating)” for short) is listed as “B (≤ 80)” and the “SEPTTR 3DC, LV activity at 125.1 g/H (% Control rating)” value (“SEPTTR 3DC … (% Control rating)” below) is “A (> 80)”. In the assay on Puccinia triticina, the “PUCCRT 1DP, LV activity at 125.1 g/H (% Control rating)” value (shortened to “PUCCRT 1DP … (% Control rating)”) is listed as “A (> 80)” and the “PUCCRT 3DC, LV activity at 125.1 g/H (% Control rating)” value (“PUCCRT 3DC … (% Control rating)” for short) is on record as “A (> 80)”.

Regarding `CCCOC[C@H](C)OC(=O)[C@H](C)NC(=O)c1nccc(OC)c1O` [Cmpd 334], in the assay with Zymoseptoria tritici, the “SEPTTR 1DP disease control rating, HV activity” value was “B (≤ 80)” and the “SEPTTR 3DC disease control rating, HV activity” value is “B (≤ 80)”. Further, in the assay with Puccinia triticina, the “PUCCRT 1DP disease control rating, HV activity” value was “D” and the “PUCCRT 3DC disease control rating, HV activity” value is “B (≤ 80)”.

With `COc1ccnc(C(=O)NC(C)C(=O)OC(C)C(Oc2ccccc2)c2nccs2)c1OCOC(C)=O` (mixture of isomers) [Cmpd 861], in the assay with Zymoseptoria tritici, the “SEPTTR 1DP disease control rating, LV activity at 125.1 g/H” value was “D” and the “SEPTTR 3DC disease control rating, LV activity at 125.1 g/H” value is “B (≤ 80)”. Moreover, in the assay on Puccinia triticina, the “PUCCRT 1DP disease control rating, LV activity at 125.1 g/H” value is on record as “A (> 80)” and the “PUCCRT 3DC disease control rating, LV activity at 125.1 g/H” value is listed as “A (> 80)”.

`CCC(CC)[C@@H](Oc1ccc(Cl)cc1Cl)[C@H](C)OC(=O)[C@H](C)NC(=O)c1nccc(OC)c1OC(C)=O` [Cmpd 601]: in the assay with Zymoseptoria tritici, the “SEPTTR 1DP … (% Control rating)” value is “B (≤ 80)” and the “SEPTTR 3DC … (% Control rating)” value is given as “B (≤ 80)”. In the assay with Puccinia triticina, the “PUCCRT 1DP … (% Control rating)” value is given as “A (> 80)” and the “PUCCRT 3DC … (% Control rating)” value was “B (≤ 80)”.

As to `COc1ccnc(C(=O)N[C@H](C)C(=O)O[C@H](C)[C@@H](Oc2ccccc2)C(C)C)c1O` [Cmpd 351], in the assay with Zymoseptoria tritici, the “SEPTTR 1DP disease control rating, HV activity” value was “B (≤ 80)” and the “SEPTTR 3DC disease control rating, HV activity” value is listed as “D”. In addition, in the assay with Puccinia triticina, the “PUCCRT 1DP disease control rating, HV activity” value is listed as “D” and the “PUCCRT 3DC disease control rating, HV activity” value is “D”.

With `COc1ccnc(C(=O)N[C@@H](C)C(=O)O[C@@H](C)[C@@H](OC(=O)c2ccccc2)C(C)C)c1OC(C)=O` [Cmpd 856], in the assay on Zymoseptoria tritici, the “SEPTTR 1DP disease control rating, LV activity at 125.1 g/H” value is on record as “D” and the “SEPTTR 3DC disease control rating, LV activity at 125.1 g/H” value is “D”. In the assay on Puccinia triticina, the “PUCCRT 1DP disease control rating, LV activity at 125.1 g/H” value is listed as “B (≤ 80)” and the “PUCCRT 3DC disease control rating, LV activity at 125.1 g/H” value was “B (≤ 80)”.

On to `C=CC[C@@H](Oc1ccc(C(F)(F)F)cc1)[C@H](C)OC(=O)[C@H](C)NC(=O)c1nccc(OC)c1OC(C)=O` [Cmpd 1084], for which, in the assay on Zymoseptoria tritici, the “LV activity at 125.1 g/H SEPTTR 1DP (disease control rating)” value was “B (≤ 80)” and the “LV activity at 125.1 g/H SEPTTR 3DC (disease control rating)” value is listed as “B (≤ 80)”. In addition, in the assay with Puccinia triticina, the “LV activity at 125.1 g/H PUCCRT 1DP (disease control rating)” value is given as “B (≤ 80)” and the “LV activity at 125.1 g/H PUCCRT 3DC (disease control rating)” value is given as “D”.

Consider `CC[C@H](Cc1ccc(F)cc1)[C@@H](Oc1ccccc1)[C@H](C)OC(=O)[C@H](C)NC(=O)c1nccc(OC)c1OC(C)=O` [Cmpd 469], for which, in the assay on Zymoseptoria tritici, the “SEPTTR 1DP … (% Control rating)” value is “A (> 80)” and the “SEPTTR 3DC … (% Control rating)” value was “A (> 80)”. In the assay on Puccinia triticina, the “PUCCRT 1DP … (% Control rating)” value is given as “A (> 80)” and the “PUCCRT 3DC … (% Control rating)” value is given as “A (> 80)”.

As to `COc1ccnc(C(=O)N[C@@H](C)C(=O)O[C@@H](C)[C@H](OCC2CC2)C2CC2)c1OC(C)=O` [Cmpd 1066], in the assay with Zymoseptoria tritici, the “LV activity at 125.1 g/H SEPTTR 1DP (disease control rating)” value is listed as “B (≤ 80)” and the “LV activity at 125.1 g/H SEPTTR 3DC (disease control rating)” value is listed as “B (≤ 80)”. In the assay on Puccinia triticina, the “LV activity at 125.1 g/H PUCCRT 1DP (disease control rating)” value is reported as “B (≤ 80)” and the “LV activity at 125.1 g/H PUCCRT 3DC (disease control rating)” value is “A (> 80)”.
